Data reported in publication PMC10104742, “The Determination of Polymyxin B in Critically Ill Patients by the HPLC-MS/MS Method” (International Journal of Analytical Chemistry, 2023).
Positions of bridges follow the written chain, without caps; N, C: chain ends. Non-standard residues stand in square brackets, D forms with d. Residues, ends and D or L forms follow the SMILES beside them. *: point of attachment. X1 = CC[C@H](C)CCCCC(=O)*; Dab = NCC[C@H](N)C(=O)O

Experiments:
[1] = Stability of working and stock solutions; format: physicochemical
Method: Standard and IS stock solutions were prepared in Milli-Q water containing 1% FA (v/v) at 1 mg/mL (with all substances) and subpacked in EP tubes. Working solutions were diluted from the stock solution. The concentrations of PB1 in the PB1-I's working solution were 160, 120, 100, 48, 24, 12, 6, and 2 μg/mL. The quality control (QC) working solutions were 140, 80, 20, and 4 μg/mL. The IS solution, polymyxin E2, was diluted in 1% FA water to 7.5 μg/mL. All solutions were stored at −80°C.
(§1) QC samples (QCL, QCM1, QCM2, and QCH) were used to investigate the stability of the stock solutions, working solutions, and samples. Each QC was set with three parallels. The stability of plasma samples stored at room temperature (25°C) for 4 h, at 4°C in a refrigerator for 24 h, at −20°C for 37 days, and at −80°C for 97 days was investigated. The freeze-thaw stability of −20°C and −80°C freeze-thaw cycles at three times each was investigated. The stability of the stock and working solutions stored at −80°C for 97 days was investigated. The accuracy of the quality control sample should be within ±15% of the nominal concentration; the precision should be within 15%.

[2] = Stability of PB in plasma QC samples (short-term, freeze-thaw, long-term); format: in vitro ADME, human; settings: for Stability of the sample (in words): human plasma sample
Method: Blank plasma (190 μL) and 10 μL working solution were mixed to prepare calibration curves of 8000, 6000, 5000, 2400, 1200, 600, 300, and 100 ng/ml for PB1/PB1-I, and 948.5, 711.4, 592.8, 284.6, 142.3, 71.1, 35.6, and 11.9 ng/mL for PB2/PB3. Similar to the QC standards, for PB1/PB1-I, the low QC (QCL), medium QC 1 (QCM1), medium QC 2 (QCM2), and high QC (QCH) were 200, 1000, 4000, and 7000 ng/ml, respectively. For PB2/PB3, QC standards were 23.7, 118.6, 474.3, and 830.0 ng/ml. First, a 100 μL calibration sample or QC sample was removed; 10 μL IS solution, 200 μL ACN with 0.1% FA (v/v), and 0.2% TFA (v/v/v) were added successively. The samples were vortexed for 2 min to make precipate the protein fully, then centrifugated at 18800 g at 4 ℃ for 15 min. About 200 μL of the supernatant was sucked and transferred into 96-well plates for analysis.
(§2) Volume of 200 μL ACN with 0.2% TFA and 0.1% FA was added to a 100 μL plasma sample containing 10 μL IS solution, vortexed for 2 min, and centrifugated at 18800 g at 4°C for 15 min. The supernatant was then transferred to a 96-well plate for analysis.
as §1

[3] = Stability of extracted supernatant in the autosampler; format: physicochemical; settings: extracted supernatant in automatic sampler, 24 h
Method: The LC-MS/MS system consisted of an Agilent 1260 HPLC system equipped with a cooled autosampler (4°C) and an Agilent 6460 electrospray ionization-triple quadrupole mass spectrometer (Agilent Technologies, USA). The chromatographic column was BEH C18 (Waters, 2.1 × 50 mm, 1.7 μm) (Waters Corporation, USA). Ultrapure water was prepared using the Milli-Q Direct 8 (E. Merck, Darmstadt, Germany) water purification system. A Heraeus Multifuge X1R (Thermo Fisher Scientific, USA) high-speed refrigerated centrifuge was used for the centrifugation. SHIMADZU-AUW120D (Shimadzu Corporation, Japan) was used for the weighting.
as §2
as §1, with “The stability of the stock and working solutions stored at −80°C for 97 days was investigated. The accuracy of the quality control sample should be within ±15% of the nominal concentration; the precision should be within 15%.” left out

CC[C@H](C)CCCCC(=O)N[C@@H](CCN)C(=O)N[C@H](C(=O)N[C@@H](CCN)C(=O)N[C@H]1CCNC(=O)[C@H]([C@@H](C)O)NC(=O)[C@H](CCN)NC(=O)[C@H](CCN)NC(=O)[C@H](CC(C)C)NC(=O)[C@@H](Cc2ccccc2)NC(=O)[C@H](CCN)NC1=O)[C@@H](C)O [PB, Polymyxin B] (X1-[Dab]T[Dab][Dab][Dab][dF]L[Dab][Dab]T; lactam 4-C)
stable: Stability of the stock solution (in words) ([1]; stock solution at −80°C for 97 days) | Stability of the working solution (in words) ([1]; working solution at −80°C for 97 days) | Stability of the working solution (in words) ([1]; working solution stored at −20°C for 18 days) | Stability of the sample (in words) ([2]; 4°C, 24 h) | Stability of the sample (in words) ([2]; room temperature, 4 h) | Stability of the sample (in words) ([2]; −20°C, three freeze-thaw cycles) | Stability of the sample (in words) ([2]; −80°C, three freeze-thaw cycles) | Stability of the samples (in words) ([2]; human plasma samples stored at −20°C for 37 days) | Stability of the samples (in words) ([2]; human plasma samples stored at −80°C for 97 days) | Stability of the extracted supernatant (in words) [3]
